Laboratory results taken from patent publication US20260061082A1, “PROSTATE-SPECIFIC MEMBRANE ANTIGEN TARGETED DEEP-TUMOR PENETRATION OF POLYMER NANODRUGS AND METHODS OF USE THEREOF” (priority 2022, published 2026).
Values joined by “and” are separate entries in the source; they are usually repeats but may differ in a detail not shown here. Equal values may be shown once. Read-outs that look alike come from different tables or passages of the source. Values belong to the molecule of their own block, whether it stands above or below them.

Key:
[1] = molecular target: T1, PSMA (PSMA+ PC3-Pip cells) (Homo sapiens, UniProt Q04609); assay: 68Ga-PSMA-11 competition radioligand binding assay
T1 construct: host or cells: PC3-Pip (PSMA+ subline of PC-3)
T1 sequence (Q04609 whole entry): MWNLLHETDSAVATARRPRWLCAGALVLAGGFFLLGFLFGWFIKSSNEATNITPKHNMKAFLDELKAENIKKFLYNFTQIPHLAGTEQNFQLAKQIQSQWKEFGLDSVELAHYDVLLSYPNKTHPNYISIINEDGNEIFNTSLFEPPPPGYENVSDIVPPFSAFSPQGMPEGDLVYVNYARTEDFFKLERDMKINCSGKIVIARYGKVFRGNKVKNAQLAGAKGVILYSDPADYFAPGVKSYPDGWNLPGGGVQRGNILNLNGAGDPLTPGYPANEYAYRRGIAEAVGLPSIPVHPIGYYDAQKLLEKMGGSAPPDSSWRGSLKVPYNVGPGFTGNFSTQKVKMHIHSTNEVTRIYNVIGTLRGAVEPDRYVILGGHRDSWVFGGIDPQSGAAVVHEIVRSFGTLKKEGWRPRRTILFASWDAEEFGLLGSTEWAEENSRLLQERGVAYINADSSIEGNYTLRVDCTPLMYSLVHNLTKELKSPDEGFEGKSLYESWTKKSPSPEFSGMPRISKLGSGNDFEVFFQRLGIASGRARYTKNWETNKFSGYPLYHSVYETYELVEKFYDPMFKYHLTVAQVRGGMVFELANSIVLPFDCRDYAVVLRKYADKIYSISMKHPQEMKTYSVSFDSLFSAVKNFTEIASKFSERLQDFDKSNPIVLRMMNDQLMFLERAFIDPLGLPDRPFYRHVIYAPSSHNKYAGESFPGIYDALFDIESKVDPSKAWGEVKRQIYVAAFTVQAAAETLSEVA

PSMA = PSMA (Homo sapiens, UniProt Q04609); settings: previously reported; cited from earlier work
Sequence of PSMA (Q04609 whole entry, species assumed): as the sequence (Q04609 whole entry) above

[2] = test system: PSMA+ PC3-Pip subcutaneous tumors; settings: prior literature; cited from earlier work
[3] = test system: prostate specific antigen; settings: patients receiving as low as 14 Gy tumor-absorbed dose; cited from earlier work
[4] = test system: PSMA+ PC3-Pip subcutaneous tumors; assay: Treatment study in PSMA+ PC3-Pip subcutaneous models; format: in vivo, mice; settings: 250 μCi single dose
Procedure: The tumor measurements were carried out twice a week, and tumor volumes were calculated by formula V=[length×(width)^2]/2.

[5] = test system: PC3-Pip metastatic tumors; assay: Ex vivo organ biodistribution of [68Ga]PSMA-11 in PC3-Pip metastatic models after treatment; settings: Control mice (no 177Lu nanocarrier), individual mice

IC50 ([1]; Table 10 Experiment 1, unlabeled): 25.5 nM
SMILES: O=C(O)CC[C@H](NC(=O)N[C@@H](CCCCNC(=O)Nc1ccc(I)cc1)C(=O)O)C(=O)O [PSMA-2]
Ki (PSMA): 0.24 nM

SMILES: O=C([O-])CN1CCN(CC(=O)[O-])CCN(CC(=O)NCC2CCC(C(=O)N[C@@H](Cc3ccc4ccccc4c3)C(=O)NCCCC[C@H](NC(=O)N[C@@H](CCC(=O)O)C(=O)O)C(=O)O)CC2)CCN(CC(=O)[O-])CC1.[177Lu+3] (stereo partly shown) [[^177Lu]PSMA-617]
median survival [2]: 51 days | reduction of prostate specific antigen [3]: more than 50% | median survival [4]: 46 days

SMILES: O=C([O-])CN(CCN(CC(=O)[O-])Cc1cc(CCC(=O)NCCCCCC(=O)NCCCC[C@H](NC(=O)N[C@@H](CCC(=O)O)C(=O)O)C(=O)O)ccc1[O-])Cc1cc(CCC(=O)O)ccc1[O-].[68Ga+3].[OH3+] [[^68Ga]PSMA-11]
[^68Ga]PSMA-11 ex vivo organ biodistribution, Blood ([5]; day 35): 0.114 % ID/g and 0.2999 % ID/g and 0.08 % ID/g and 0.1 % ID/g and 0.06 % ID/Organ and 0.2029 % ID/Organ and 0.05813 % ID/Organ and 0.05324 % ID/Organ | [^68Ga]PSMA-11 ex vivo organ biodistribution, Bone ([5]; day 35): 0.335 % ID/g and 0.215 % ID/g and 0.2269 % ID/g and 0.3033 % ID/g and 0.08 % ID/Organ and 0.05419 % ID/Organ and 0.04439 % ID/Organ and 0.06845 % ID/Organ | [^68Ga]PSMA-11 ex vivo organ biodistribution, Brain ([5]; day 35): 0.046 % ID/g and 0.01371 % ID/g and 0.02404 % ID/g and 0.03404 % ID/g and 0.02 % ID/Organ and 0.004254 % ID/Organ and 0.009255 % ID/Organ and 0.01265 % ID/Organ | [^68Ga]PSMA-11 ex vivo organ biodistribution, Heart ([5]; day 35): 1.938 % ID/g and 1.093 % ID/g and 0.8842 % ID/g and 0.9371 % ID/g and 0.29 % ID/Organ and 0.1577 % ID/Organ and 0.1548 % ID/Organ and 0.1476 % ID/Organ | [^68Ga]PSMA-11 ex vivo organ biodistribution, Large Int ([5]; day 35): 0.663 % ID/g and 0.3338 % ID/g and 0.1292 % ID/g and 0.592 % ID/g and 0.09 % ID/Organ and 0.08014 % ID/Organ and 0.03072 % ID/Organ and 0.1919 % ID/Organ | [^68Ga]PSMA-11 ex vivo organ biodistribution, Liver ([5]; day 35): 0.855 % ID/g and 0.4054 % ID/g and 0.232 % ID/g and 0.289 % ID/g and 0.62 % ID/Organ and 0.2982 % ID/Organ and 0.1099 % ID/Organ and 0.2246 % ID/Organ | [^68Ga]PSMA-11 ex vivo organ biodistribution, Lung ([5]; day 35): 8.218 % ID/g and 1.814 % ID/g and 1.285 % ID/g and 1.336 % ID/g and 3.12 % ID/Organ and 0.2767 % ID/Organ and 0.1869 % ID/Organ and 0.2393 % ID/Organ | [^68Ga]PSMA-11 ex vivo organ biodistribution, Muscle ([5]; day 35): 0.414 % ID/g and 0.2044 % ID/g and 0.2192 % ID/g and 0.1624 % ID/g and 0.2 % ID/Organ and 0.05644 % ID/Organ and 0.04564 % ID/Organ and 0.04172 % ID/Organ | [^68Ga]PSMA-11 ex vivo organ biodistribution, Pancreas ([5]; day 35): 0.464 % ID/g and 0.2066 % ID/g and 0.2297 % ID/g and 0.5007 % ID/g and 0.04 % ID/Organ and 0.02448 % ID/Organ and 0.03206 % ID/Organ and 0.07795 % ID/Organ | [^68Ga]PSMA-11 ex vivo organ biodistribution, Skin ([5]; day 35): 3.25 % ID/g and 0.586 % ID/g and 0.9817 % ID/g and 0.4433 % ID/g and 1.08 % ID/Organ and 0.2667 % ID/Organ and 0.196 % ID/Organ and 0.2187 % ID/Organ | [^68Ga]PSMA-11 ex vivo organ biodistribution, Small Int ([5]; day 35): 0.29 % ID/g and 0.1397 % ID/g and 0.1663 % ID/g and 0.1479 % ID/g and 0.03 % ID/Organ and 0.02347 % ID/Organ and 0.03142 % ID/Organ and 0.02756 % ID/Organ | [^68Ga]PSMA-11 ex vivo organ biodistribution, Splcon ([5]; day 35): 22.586 % ID/g and 8.851 % ID/g and 8.108 % ID/g and 16.38 % ID/g | [^68Ga]PSMA-11 ex vivo organ biodistribution, Spleen ([5]; day 35): 1.34 % ID/Organ and 1.068 % ID/Organ and 0.7168 % ID/Organ and 1.253 % ID/Organ | [^68Ga]PSMA-11 ex vivo organ biodistribution, Stomach ([5]; day 35): 0.171 % ID/g and 0.3271 % ID/g and 0.1157 % ID/g and 0.09441 % ID/g and 0.16 % ID/Organ and 0.1002 % ID/Organ and 0.07062 % ID/Organ and 0.08055 % ID/Organ | [^68Ga]PSMA-11 ex vivo organ biodistribution, Blood ([5]; day 50): 0.212 % ID/g and 0.29 % ID/g and 0.207 % ID/g and 0.07 % ID/g and 0.13 % ID/Organ and 0.26 % ID/Organ and 0.14 % ID/Organ | [^68Ga]PSMA-11 ex vivo organ biodistribution, Bone ([5]; day 50): 0.398 % ID/g and 1.082 % ID/g and 0.335 % ID/g and 0.768 % ID/g and 0.06 % ID/Organ and 0.07 % ID/Organ and 0.05 % ID/Organ | [^68Ga]PSMA-11 ex vivo organ biodistribution, Brain ([5]; day 50): 0.037 % ID/g and 0.073 % ID/g and 0.024 % ID/g and 0.025 % ID/g and 0.01 % ID/Organ and 0.02 % ID/Organ | [^68Ga]PSMA-11 ex vivo organ biodistribution, Heart ([5]; day 50): 1.037 % ID/g and 1.182 % ID/g and 0.615 % ID/g and 0.906 % ID/g and 0.16 % ID/Organ and 0.09 % ID/Organ and 0.14 % ID/Organ and 0.18 % ID/Organ | [^68Ga]PSMA-11 ex vivo organ biodistribution, Large Int ([5]; day 50): 0.766 % ID/g and 0.402 % ID/g and 1.093 % ID/g and 1.205 % ID/g and 0.12 % ID/Organ and 0.06 % ID/Organ and 0.24 % ID/Organ and 0.25 % ID/Organ | [^68Ga]PSMA-11 ex vivo organ biodistribution, Liver ([5]; day 50): 2.351 % ID/g and 1.41 % ID/g and 0.215 % ID/g and 0.336 % ID/g and 3.36 % ID/Organ and 0.35 % ID/Organ and 0.3 % ID/Organ and 0.41 % ID/Organ | [^68Ga]PSMA-11 ex vivo organ biodistribution, Lungs ([5]; day 50): 4.185 % ID/g and 14.472 % ID/g and 1.403 % ID/g and 2.187 % ID/g and 0.55 % ID/Organ and 1.74 % ID/Organ and 0.19 % ID/Organ and 0.34 % ID/Organ | [^68Ga]PSMA-11 ex vivo organ biodistribution, Muscle ([5]; day 50): 0.335 % ID/g and 0.498 % ID/g and 0.405 % ID/g and 0.533 % ID/g and 0.04 % ID/Organ and 0.06 % ID/Organ and 0.11 % ID/Organ and 0.09 % ID/Organ | [^68Ga]PSMA-11 ex vivo organ biodistribution, Pancreas ([5]; day 50): 0.568 % ID/g and 0.668 % ID/g and 0.447 % ID/g and 0.649 % ID/g and 0.05 % ID/Organ and 0.07 % ID/Organ and 0.06 % ID/Organ | [^68Ga]PSMA-11 ex vivo organ biodistribution, Skin ([5]; day 50): 1.068 % ID/g and 2.397 % ID/g and 0.883 % ID/g and 0.807 % ID/g and 0.62 % ID/Organ and 0.6 % ID/Organ and 0.31 % ID/Organ and 0.33 % ID/Organ | [^68Ga]PSMA-11 ex vivo organ biodistribution, Small Int ([5]; day 50): 0.365 % ID/g and 0.631 % ID/g and 0.23 % ID/g and 0.289 % ID/g and 0.05 % ID/Organ and 0.09 % ID/Organ and 0.06 % ID/Organ and 0.07 % ID/Organ | [^68Ga]PSMA-11 ex vivo organ biodistribution, Spleen ([5]; day 50): 10.073 % ID/g and 86.889 % ID/g and 5.37 % ID/g and 8.812 % ID/g and 0.58 % ID/Organ and 1.25 % ID/Organ and 0.94 % ID/Organ and 1.1 % ID/Organ | [^68Ga]PSMA-11 ex vivo organ biodistribution, Stomach ([5]; day 50): 0.605 % ID/g and 0.424 % ID/g and 0.154 % ID/g and 0.107 % ID/g and 0.34 % ID/Organ and 0.17 % ID/Organ and 0.12 % ID/Organ and 0.11 % ID/Organ

SMILES: [N-]=[N+]=NCCCCCCOC(=O)NCCCC[C@H](NC(=O)N[C@@H](CCC(=O)O)C(=O)O)C(=O)O [Azido-ACUPA]
IC50 ([1]; Table 2 Experiment 1, unlabeled): 350 nM | IC50 ([1]; Table 10 Experiment 2, unlabeled): 328 nM
